“Also recorded” adds a separate entry of the source.
Experiments:
BSEP = BSEP (Homo sapiens, UniProt O95342); assay: In vitro transporter study; assay type: in vitro ADME
[1] = PK in subjects with renal impairment; assay type: in vivo, human
Procedure: Following a single 900 mg dose of voxelotor, whole blood exposures in subjects with severe renal impairment (eGFR <30 mL/min/1.73 m^2) were 25% lower compared to healthy controls.

pregnant rats [2] = assay: Embryo-fetal development study in rats; assay type: in vivo, rat; conditions: oral 15, 50, 250 mg/kg/day, gestation days 7 through 17
Procedure: In embryo-fetal development studies, voxelotor was administered orally to pregnant rats at 15, 50, and 250 mg/kg/day (gestation days 7 through 17) and rabbits at 25, 75, and 150 mg/kg/day (gestation days 7 through 19) through organogenesis.

OAT3 = OAT3 (Homo sapiens, UniProt Q8TCC7); assay: In vitro transporter study; assay type: in vitro ADME
OCT2 = OCT2 (Homo sapiens, UniProt O15244); assay: In vitro transporter study; assay type: in vitro ADME
[3] = Clinical pharmacokinetics after oral administration; assay type: in vivo, human
OATP1A2 = OATP1A2 (Homo sapiens, UniProt P46721); assay: In vitro transporter study; assay type: in vitro ADME
[4] = system: patients with SCD aged 4 to 11 years; assay: Open-label Phase 2 trial (part C): Hb response and hemolysis markers; assay type: in vivo, human
Source text: Patients and treatment: Patients with SCD were screened at 15 study sites in the United States, Lebanon, and the United Kingdom. Key inclusion criteria included patients with SCD (homozygous sickle cell disease [HbSS] or HbSβ^0 genotypes), aged 4 to 11 years, and with hemoglobin (Hb) concentrations ≤10.5 g/dL at baseline. Concomitant hydroxyurea was allowed if the dose was stable for ≥3 months at enrollment, with no anticipated need for dose adjustment during the study. There was no eligibility requirement regarding prior VOCs. Patients who were receiving chronic red blood cell transfusion therapy, had received a transfusion in the past 30 days, or had been hospitalized for a VOC, acute chest syndrome, splenic sequestration crisis, or dactylitis within 14 days before providing informed consent were excluded.
All patients received dispersible voxelotor tablets. Patients aged 4 to 11 years received once-daily voxelotor weight-based-dosing (Table 1).
Statistical analyses: All efficacy and safety assessments were summarized with descriptive statistics. Population PK analyses using nonlinear mixed-effects modeling were performed to characterize voxelotor PK in plasma and whole blood.
Patients 4 to <12 years received tablets for oral suspension based on body weight at baseline. OXBRYTA doses of 600 mg, 900 mg, or 1,500 mg once daily were administered to patients weighing 10 kg to <20 kg, 20 kg to <40 kg, or ≥40 kg, respectively. Patients 12 to <17 years received OXBRYTA 1,500 mg once daily.
Patients were included if their baseline hemoglobin (Hb) was <10.5 g/dL. Eligible patients on stable doses of hydroxyurea for at least 90 days were allowed to continue hydroxyurea therapy throughout the study.
Efficacy was based on Hb response rate, which is defined as a Hb increase of >1 g/dL from baseline to Week 24.

patients with SCD = assay: HOPE trial: safety; assay type: in vivo, human
Procedure: The safety of OXBRYTA was evaluated in the HOPE trial based on data from 88 patients with SCD who received OXBRYTA 1,500 mg and 91 patients who received placebo orally once daily [see Clinical Studies (14.1)]. Seventy-four patients received OXBRYTA 1,500 mg once daily for ≥24 weeks, 65 patients for ≥48 weeks, and 63 patients completed the 72-week treatment period.
In patients who received OXBRYTA 1,500 mg once daily, the median age was 24 years (range:12 to 59 years); 65% female; 66% Black or African American and 23% Arab/Middle Eastern; and 65% receiving hydroxyurea at baseline.

pregnant rats [5] = assay: Pre- and postnatal development study in rats; assay type: in vivo, rat
Procedure: In a pre- and postnatal development study, voxelotor was administered orally to pregnant rats at 15, 50 and 250 mg/kg/day (gestation day 6 through lactation day 20). Maternal gestational body weights were decreased at 250 mg/kg/day, which continued to the end of lactation.

hemoglobin S (HbS) = hemoglobin S (HbS) (Homo sapiens, UniProt P68871+P69905, E7V); assay: HbS binding and polymerization inhibition
CYP2C8 = molecular target: T1, CYP2C8 (Homo sapiens, UniProt P10632); assay: Effect of voxelotor on CYP450 enzymes in vivo: CYP2C8
T1 construct: endogenous in cells; host or cells: human subjects (in vivo)

BCRP = BCRP (Homo sapiens, UniProt Q9UNQ0); assay: In vitro transporter study; assay type: in vitro ADME
[6] = Effect of food (high-fat, high-calorie meal); assay type: in vivo; conditions: high-calorie meal vs fasted
[7] = 4 to 11 years, weight-based dosing

CC(C)n1nccc1-c1ncccc1COc1cccc(O)c1C=O [voxelotor, 2-hydroxy-6-((2-(1-isopropyl-1H-pyrazol-5-yl)pyridin-3-yl)methoxy)benzaldehyde]
BSEP inhibition (BSEP): not an inhibitor | substrate of BSEP (BSEP): not a substrate | effect of renal function on excretion ([1]; human, in vivo): no clinically significant effect | unbound plasma concentrations, severe renal impairment vs healthy controls ([1]; single 900 mg dose): comparable | whole blood exposures lower in severe renal impairment vs healthy controls ([1]; single 900 mg dose, eGFR <30 mL/min/1.73 m^2): 25% | developmental outcome (pregnant rats [2]): no adverse developmental effects; also recorded: no evidence of adverse developmental outcomes | OAT3 inhibition (OAT3): not an inhibitor | OCT2 inhibition (OCT2): not an inhibitor | time to steady-state after repeated administration ([3]; patients with SCD): ≤ 8 days | dose linearity of PK ([3]; single or multiple doses, whole blood, plasma, RBCs): linear | substrate of OATP1A2 (OATP1A2): not a substrate | mean change in Hb from baseline at week 24 ([4]; 4 to 11 years, once-daily weight-based 600/900/1500 mg dispersible tablets, n=34): 1.0 g/dL | patients with Hb response (>1.0 g/dL increase from baseline) at week 2 [4, 7]: 54.5% | patients with an increase in Hb of any magnitude from baseline at week 24 [4, 7]: 82% | patients with >2.0 g/dL increase in Hb from baseline at week 24 ([4]; 4 to 11 years, weight-based dosing, n=7/34): 21% | patients with >1.5 g/dL increase in Hb from baseline at week 24 ([4]; 4 to 11 years, weight-based dosing, n=12/34): 35% | patients with Hb response (increase >1.0 g/dL from baseline) at week 24 ([4]; 4 to 11 years, weight-based dosing, n=34): 47.1% | Hb response rate (Hb increase >1 g/dL from baseline to Week 24) ([4]; patients 4 to <12 years who took at least one dose (16/45)): 36% | mean percent change from baseline in indirect bilirubin ([4]; week 24, n=28): −38.6% | mean percent change from baseline in percent reticulocyte count ([4]; week 24, n=31): −3.25% | mean percent change from baseline in lactate dehydrogenase ([4]; week 24, n=32): −2.6% | serious adverse reactions, patients (patients with SCD; 1,500 mg once daily, 3/88): 3% | permanent discontinuation due to an adverse reaction (Grades 1-4), patients (patients with SCD; 1,500 mg once daily, 4/88): 5% | Adverse reaction: Abdominal Pain (patients with SCD; 1,500 mg, N=88): 23% | Adverse reaction: Diarrhea (patients with SCD; 1,500 mg, N=88): 23% | Adverse reaction: Headache (patients with SCD; 1,500 mg, N=88): 32% | Adverse reaction: Nausea (patients with SCD; 1,500 mg, N=88): 19% | Adverse reaction: Pyrexia (patients with SCD; 1,500 mg, N=88): 15% | Adverse reaction: Rash (patients with SCD; 1,500 mg, N=88): 15% | dosage modifications (dose reduction or dosing interruption) due to an adverse reaction, patients (patients with SCD; 42/88): 48% | maternal gestational body weights (pregnant rats [5]; 250 mg/kg/day, gestation day 6 through lactation day 20): decreased | findings in offspring (pregnant rats [5]; maternal dose 250 mg/kg/day): reduced survival and reduced body weights | exposure at 250 mg/kg/day relative to exposure in patients at recommended dose (pregnant rats [5]; maternal dose with offspring effects): approximately 2.8 times | HbS polymerization (hemoglobin S (HbS)): dose-dependent inhibition | CYP2C8 inhibition in vivo (CYP2C8): not | BCRP inhibition (BCRP): not an inhibitor | substrate of BCRP (BCRP): not a substrate | increase in AUC with food, plasma [6]: 42% | increase in AUC with food, whole blood [6]: 42% | increase in Cmax with food, plasma [6]: 95% | increase in Cmax with food, whole blood [6]: 45%
